Test results taken from PMC12036875, “Mitochondria-targeting natural product rhein conjugated with dichloroacetate as the dual inhibitor of glycolysis and oxidative phosphorylation to off energize cancer cells and induce ROS storm” (Theranostics, 2025).

Key:
[1] = Stability in simulated gastrointestinal environment (HPLC); format: physicochemical; settings: 37°C, within 2 h
Method: The proven oral administration experiences of rhein and DCA validated the feasibility and potential of our research on the oral administration of their derivative, Rhein-DCA [34], [35]. We first evaluated the stability of Rhein-DCA by simulating gastric acid (pH 1.5) and intestinal (pH 6.8) conditions in vitro with HPLC. The stability of the Rhein-DCA was as high as 85% within 2 h, indicating the stable of Rhein-DCA in gastrointestinal environment, and it was capable of being efficiently absorbed via the gastrointestinal tract (Figure S21).
Prepare phosphate buffer solutions at pH 1.5 (gastric simulation) and pH 6.8 (intestinal simulation). Rhein-DCA was added to the buffer and incubated at 37°C. Samples were collected at 0, 2, 4, and 6 h for HPLC analysis. Calculate stability (%) = (Ct / C0) × 100, where Ct and C0 are concentrations at time t h and 0 h, respectively.

[2] = tested on: mitochondria of 4T1 cells; test: Cell uptake and organelle localization (CLSM); format: cell-based, Mouse; settings: 24 h
From the text: In order to evaluate the positive effect of the conjugation of rhein and DCA on anti-cancer aspect, cellular uptake of Rhein-DCA conjugate in 4T1 cells was first examined by confocal laser scanning microscope (CLSM). Based on the fluorescence properties of Rhein-DCA conjugate, green fluorescence signal indicated its distribution within the cells. […] The green fluorescence of rhein was highly overlapped with the red fluorescence of mitochondria (Mito tracker red) and merged into yellow fluorescence in rhein and Rhein-DCA groups.
4T1 cells were seeded in confocal dishes at a density of 10 × 10^4 cells per dish and cultured in the incubator for 24 h. And the cells were further treated with Rhein-DCA conjugate at a concentration of 6.25 μM for 0, 2, 6, 12 or 24 h, respectively. Thereafter, the cells were washed twice with PBS and stained with Hoechst 33342 (10 μg/mL) for 15 min in the dark at room temperature, followed by another two washes with PBS. Finally, the fluorescence intensity of cells was monitored with confocal microscope with excitation wavelengths (Ex) of 488 nm, emission wavelengths (Em) of 525 ± 25 nm, and Ex of 405 nm, Em of 447 ± 30 nm, respectively. […]

4T1 cells [3] = test: Intracellular and extracellular lactate determination; format: cell-based, Mouse; settings: 6.25 μM, 24 h
Method: Next, the end product of glycolysis, lactate, was analyzed in 4T1 cells to further confirm the efficacy of the Rhein-DCA conjugate in blocking glycolytic metabolism. […] Lactate will be released from cells and condense in the TME due to the sustained aerobic glycolysis. To determine whether the decline in intracellular lactate level was caused by an increased extracellular secretion or a disconnect in glycolysis pathway, we further detected the lactate content in the culture medium (Figure 2E). The changes in extracellular lactate level were consistent with those observed intracellularly across the tested groups.
4T1 cells were seeded into 6-well plates at a density of 10 × 10^4 cells per well and cultured for 24 h. Cells were exposed to PBS, rhein, DCA, R + D and Rhein-DCA conjugate at a concentration of 6.25 μM for 24 h. (1) Medium: The medium from different groups was subjected to centrifugation at 9391 G for 10 min, 100 μL of supernatant was obtained, and 1 mL of extraction solution I was added. (2) Cells: After being washed twice with PBS, cells were harvested and suspended in extraction solution I (1 mL) for further lysis with sonication in ice bath (power 300 W, the duration of sonication is 3 s, the interval duration of 7 s, total sonication time of 3 min). […] Finally, the absorption value of each sample was detected with microplate reader at 570 nm.

[4] = Stability in 2.5% DMSO-PBS by UV-Vis absorption; format: physicochemical; settings: room temperature, 0-12 h
Method: (§1) Stability of drugs is vital indexes for anticancer application. The stability of Rhein-DCA conjugate in vitro was performed by dispersing it in 2.5% dimethyl sulfoxide (DMSO)-PBS at room temperature for 0, 2, 6 and 12 h. […] Furthermore, we also quantitatively analyzed the intracellular stability of Rhein-DCA using high-performance liquid chromatography (HPLC). After 4 h of uptake, the intracellular concentration of Rhein-DCA was 0.095 μg/10^6 cells within 4T1 cells.
UV-Vis spectra were used to investigate the stability of Rhein-DCA conjugate. The Rhein-DCA was dispersed in 2.5% DMSO-PBS at room temperature, and the absorption spectrum was monitored at 0, 2, 6 and 12 h. High performance liquid chromatography (HPLC) was used to investigate the intracellular stability of Rhein-DCA conjugate. 4T1 cells were seeded in cell culture dish (diameter of 10 cm) at a density of 2 × 10^6 cells per dish and cultured in the incubator for 24 h. Then the cells were further treated with Rhein-DCA conjugate at a concentration of 11 μg/mL for 4 h. After removing media and washing the cells three times with PBS to remove the residual Rhein-DCA, the cells were incubated for another 2 h. […] A C18 column was used with methanol / 0.1% H₃PO₄ (83:17) as the mobile phase, flow rate 1.0 mL/min, fluorescence detector with an excitation wavelength of 443 nm and an emission wavelength of 530 nm.

4T1 cells [5] = test: Intracellular stability by HPLC; format: in vitro ADME, Mouse
Method: as §1
UV-Vis spectra were used to investigate the stability of Rhein-DCA conjugate. The Rhein-DCA was dispersed in 2.5% DMSO-PBS at room temperature, and the absorption spectrum was monitored at 0, 2, 6 and 12 h. High performance liquid chromatography (HPLC) was used to investigate the intracellular stability of Rhein-DCA conjugate. 4T1 cells were seeded in cell culture dish (diameter of 10 cm) at a density of 2 × 10^6 cells per dish and cultured in the incubator for 24 h. Then the cells were further treated with Rhein-DCA conjugate at a concentration of 11 μg/mL for 4 h. After removing media and washing the cells three times with PBS to remove the residual Rhein-DCA, the cells were incubated for another 2 h. Then, the cells were collected and washed twice with PBS. The cells were suspended in 1 mL methanol to obtain cell lysates by three freeze-thaw. Then the supernatant was collected after centrifugation at 13000 G for 10 min for HPLC analysis. A C18 column was used with methanol / 0.1% H₃PO₄ (83:17) as the mobile phase, flow rate 1.0 mL/min, fluorescence detector with an excitation wavelength of 443 nm and an emission wavelength of 530 nm.

In the case of O=C(OCCOC(=O)C(Cl)Cl)c1cc(O)c2c(c1)C(=O)c1cccc(O)c1C2=O [Rhein-DCA], the “stability in simulated gastric acid (pH 1.5) and intestinal (pH 6.8) conditions” value [1] is reported as 85%, the “co-localization with lysosomes (Lyso tracker red) and endoplasmic reticulum (ER tracker red)” value [2] is reported as “almost did not co-localize” and the intracellular lactate content (4T1 cells [3]) is reported as “noticeable descent”. The “stability (UV-Vis absorption spectra)” value [4] was “relatively stable”, the “intracellular concentration after 4 h of uptake” value (4T1 cells [5]; 11 μg/mL, 4 h) was 0.095 μg/10^6 cells and the “residual intracellular concentration after removing drug and incubating another 2 h” value (4T1 cells [5]; 4 h uptake then 2 h drug-free) was 0.080 μg/10^6 cells. The intracellular degradation rate (4T1 cells [5]; within 2 h) was “approximately 15.7%”.
